# Activity calls are given as the source filed them. The calls are words filed in the database; no cut-off is given here.
# Legend:
# [1] = target: Metabotropic glutamate receptor 5 (Rattus norvegicus, UniProt P31424); test: Negative allosteric modulation of rat mGluR5 receptor expressed in HEK293 cells assessed as intracellular calcium flux after 170 seconds by FLIPR assay; format: functional, cell-based
# Cytochrome P450 1A2 = target: T1, Cytochrome P450 1A2 (Homo sapiens, UniProt P05177); test: Inhibition of CYP1A2 (unknown origin); format: ADME
# T1 sequence (P05177 whole entry): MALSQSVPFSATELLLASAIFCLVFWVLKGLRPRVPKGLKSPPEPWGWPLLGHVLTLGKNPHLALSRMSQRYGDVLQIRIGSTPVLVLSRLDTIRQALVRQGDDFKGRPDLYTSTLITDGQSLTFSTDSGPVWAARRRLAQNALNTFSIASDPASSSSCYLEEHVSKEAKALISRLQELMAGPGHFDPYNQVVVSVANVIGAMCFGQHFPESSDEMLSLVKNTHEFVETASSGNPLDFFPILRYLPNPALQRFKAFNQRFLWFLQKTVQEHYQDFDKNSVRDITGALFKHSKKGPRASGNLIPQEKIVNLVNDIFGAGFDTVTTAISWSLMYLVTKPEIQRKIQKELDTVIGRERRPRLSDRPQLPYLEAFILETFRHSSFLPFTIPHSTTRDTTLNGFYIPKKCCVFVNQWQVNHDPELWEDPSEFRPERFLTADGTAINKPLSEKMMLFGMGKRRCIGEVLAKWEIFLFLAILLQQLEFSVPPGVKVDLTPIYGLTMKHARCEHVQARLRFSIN
# [2] = Kinetic solubility of the compound in DMSO at pH 7.4; format: physicochemical; details: read-out: Kinetic_solubility
# [3] = Intrinsic clearance in human microsomes measured per mg of protein; format: ADME, Microsome
# Cytochrome P450 2D6 = Cytochrome P450 2D6 (Homo sapiens, UniProt P10635); test: Inhibition of CYP2D6 (unknown origin); format: ADME
# Chain of Cytochrome P450 2D6 (P10635 whole entry): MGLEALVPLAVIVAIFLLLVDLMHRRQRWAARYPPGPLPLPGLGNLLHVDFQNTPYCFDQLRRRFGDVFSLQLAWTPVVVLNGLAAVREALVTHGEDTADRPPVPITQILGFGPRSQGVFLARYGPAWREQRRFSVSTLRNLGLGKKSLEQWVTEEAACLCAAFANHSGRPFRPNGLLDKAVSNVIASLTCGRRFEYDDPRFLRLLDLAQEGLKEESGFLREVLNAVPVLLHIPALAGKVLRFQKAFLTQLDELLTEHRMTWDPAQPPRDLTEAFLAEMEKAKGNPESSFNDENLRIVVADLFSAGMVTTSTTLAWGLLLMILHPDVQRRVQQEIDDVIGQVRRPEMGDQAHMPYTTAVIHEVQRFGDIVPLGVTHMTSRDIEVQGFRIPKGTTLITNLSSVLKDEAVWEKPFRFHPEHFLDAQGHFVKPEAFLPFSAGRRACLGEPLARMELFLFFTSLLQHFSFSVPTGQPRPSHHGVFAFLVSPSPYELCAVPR
# Cytochrome P450 2C9 = Cytochrome P450 2C9 (Homo sapiens, UniProt P11712); test: Inhibition of CYP2C9 (unknown origin); format: ADME
# Chain of Cytochrome P450 2C9 (P11712 whole entry): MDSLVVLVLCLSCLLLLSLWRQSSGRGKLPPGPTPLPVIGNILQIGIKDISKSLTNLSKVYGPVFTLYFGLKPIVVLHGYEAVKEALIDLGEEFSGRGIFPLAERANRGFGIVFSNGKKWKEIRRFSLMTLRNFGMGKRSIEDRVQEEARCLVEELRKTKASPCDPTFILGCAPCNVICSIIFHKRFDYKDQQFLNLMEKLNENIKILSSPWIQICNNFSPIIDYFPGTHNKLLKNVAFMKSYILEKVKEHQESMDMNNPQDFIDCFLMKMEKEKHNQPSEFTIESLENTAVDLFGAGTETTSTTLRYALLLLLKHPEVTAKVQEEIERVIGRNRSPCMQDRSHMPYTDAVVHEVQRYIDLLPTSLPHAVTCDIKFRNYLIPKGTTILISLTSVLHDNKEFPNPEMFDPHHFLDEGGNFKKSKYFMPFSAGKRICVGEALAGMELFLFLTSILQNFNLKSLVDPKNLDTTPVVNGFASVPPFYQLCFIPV
# [4] = Kinetic solubility of the compound in DMSO at pH 1; format: physicochemical; details: read-out: Kinetic_solubility
# [5] = target: Metabotropic glutamate receptor 5 (Rattus norvegicus) (UniProt P31424); test: Inhibition of rat mGluR5 receptor expressed in HEK293 cells at 30 uM relative to control; format: cell-based
# Chain of Metabotropic glutamate receptor 5 (Rattus norvegicus) (P31424 21-1203 limits assumed): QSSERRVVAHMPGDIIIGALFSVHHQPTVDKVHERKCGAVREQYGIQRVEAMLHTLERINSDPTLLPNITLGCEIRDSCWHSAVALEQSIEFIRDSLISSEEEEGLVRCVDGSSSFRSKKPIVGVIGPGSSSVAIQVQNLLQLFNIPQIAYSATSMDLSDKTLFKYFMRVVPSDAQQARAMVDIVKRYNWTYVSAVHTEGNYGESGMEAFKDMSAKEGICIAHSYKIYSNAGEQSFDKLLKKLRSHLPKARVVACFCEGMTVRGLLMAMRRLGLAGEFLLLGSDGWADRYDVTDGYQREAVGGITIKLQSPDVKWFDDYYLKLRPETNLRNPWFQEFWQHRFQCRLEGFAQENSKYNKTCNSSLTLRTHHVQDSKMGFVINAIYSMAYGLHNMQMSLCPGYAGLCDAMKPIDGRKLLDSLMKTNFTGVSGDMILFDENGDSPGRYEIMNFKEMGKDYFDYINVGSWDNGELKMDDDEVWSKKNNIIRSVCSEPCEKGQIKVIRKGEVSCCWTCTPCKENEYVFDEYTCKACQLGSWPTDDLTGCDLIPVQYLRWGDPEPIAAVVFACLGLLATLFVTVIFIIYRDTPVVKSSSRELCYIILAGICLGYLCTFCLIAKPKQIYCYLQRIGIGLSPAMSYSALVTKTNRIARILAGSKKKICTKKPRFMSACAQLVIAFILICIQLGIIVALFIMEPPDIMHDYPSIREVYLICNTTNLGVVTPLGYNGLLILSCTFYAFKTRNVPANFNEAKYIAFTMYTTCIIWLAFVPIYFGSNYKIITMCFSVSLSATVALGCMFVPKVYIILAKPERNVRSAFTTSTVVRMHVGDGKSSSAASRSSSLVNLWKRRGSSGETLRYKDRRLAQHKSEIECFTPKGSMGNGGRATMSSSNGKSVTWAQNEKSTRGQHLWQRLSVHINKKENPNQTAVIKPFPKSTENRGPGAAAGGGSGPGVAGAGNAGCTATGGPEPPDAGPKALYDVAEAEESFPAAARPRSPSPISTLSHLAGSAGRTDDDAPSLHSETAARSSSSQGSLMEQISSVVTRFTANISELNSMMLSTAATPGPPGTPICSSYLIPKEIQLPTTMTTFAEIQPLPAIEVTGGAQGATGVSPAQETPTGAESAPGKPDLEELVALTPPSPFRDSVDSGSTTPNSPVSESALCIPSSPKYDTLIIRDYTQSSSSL
# Cytochrome P450 3A4 = Cytochrome P450 3A4 (Homo sapiens, UniProt P08684); test: Inhibition of CYP3A4 (unknown origin); format: ADME
# Chain of Cytochrome P450 3A4 (P08684 whole entry): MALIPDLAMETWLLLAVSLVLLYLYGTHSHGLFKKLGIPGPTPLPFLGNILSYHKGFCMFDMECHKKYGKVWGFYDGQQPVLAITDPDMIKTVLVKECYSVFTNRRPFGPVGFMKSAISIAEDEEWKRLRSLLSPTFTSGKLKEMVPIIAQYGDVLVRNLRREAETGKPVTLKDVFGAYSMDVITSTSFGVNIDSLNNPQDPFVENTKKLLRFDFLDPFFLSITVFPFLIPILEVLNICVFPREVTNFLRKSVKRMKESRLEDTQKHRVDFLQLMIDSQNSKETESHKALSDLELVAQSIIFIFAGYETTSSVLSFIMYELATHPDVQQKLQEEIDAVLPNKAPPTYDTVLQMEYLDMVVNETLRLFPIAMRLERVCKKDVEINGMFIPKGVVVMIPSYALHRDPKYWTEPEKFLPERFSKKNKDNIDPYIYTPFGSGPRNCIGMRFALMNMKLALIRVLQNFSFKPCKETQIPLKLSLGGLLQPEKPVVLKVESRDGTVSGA
# Plasma [6] = test: Metabolic stability in rat plasma matrix; format: ADME, cell-free
# [7] = target: Metabotropic glutamate receptor 5 (Rattus norvegicus) (UniProt P31424); test: Displacement of [3H]MPEP from mGluR5 receptor in Sprague-Dawley rat cortical homogenate after 1 hr by liquid scintillation spectrometric analysis
# Rattus norvegicus [8] = test: Antinociceptive activity in Sprague-Dawley rat assessed as reduction in formalin-induced nocifensive behavior at 10 mg/kg, po administered 30 mins prior to formalin-challenge; format: functional, organism-based; design: dose 10 mg/kg
# [9] = target: Metabotropic glutamate receptor 5 (Rattus norvegicus) (UniProt P31424); test: Partial negative allosteric modulation of rat mGluR5 receptor expressed in HEK293 cells assessed as intracellular calcium flux after 170 seconds by FLIPR assay relative to control; format: functional, cell-based
# [10] = Intrinsic clearance in rat microsomes measured per mg of protein; format: ADME, Microsome
# Plasma [11] = test: Terminal plasma concentration in Sprague-Dawley rat at 3 mg/kg, po measured during second phase of formalin test; format: ADME, organism-based; design: dose 3 mg/kg, route oral; details: in vivo
# Rattus norvegicus [12] = test: Antinociceptive activity in po dosed Sprague-Dawley rat assessed as reduction in formalin-induced nocifensive behavior administered 30 mins prior to formalin-challenge measured during second phase of test; format: functional, organism-based
# Plasma [13] = test: Drug uptake in rat CSF assessed as ratio of CSF to plasma at 30 mg/kg, sc relative to control; format: ADME, organism-based; design: dose 30 mg/kg, route subcutaneous; details: in vivo
# [14] = Half life in rat at 3 mg/kg, iv; format: ADME, organism-based; design: dose 3 mg/kg, route intravenous; details: in vivo
# Rattus norvegicus [15] = test: Antinociceptive activity in Sprague-Dawley rat assessed as reduction in formalin-induced nocifensive behavior at 1 to 30 mg/kg, po administered 30 mins prior to formalin-challenge measured during first phase of test; format: functional, organism-based
# Plasma [16] = test: Terminal plasma concentration in Sprague-Dawley rat at 1 mg/kg, po measured during second phase of formalin test; format: ADME, organism-based; design: dose 1 mg/kg, route oral; details: in vivo
# [17] = Cmax in rat plasma at 30 mg/kg, sc; format: ADME, organism-based; design: dose 30 mg/kg, route subcutaneous
# Plasma [18] = test: Terminal plasma concentration in Sprague-Dawley rat at 30 mg/kg, po measured during second phase of formalin test; format: ADME, organism-based; design: dose 30 mg/kg, route oral; details: in vivo
# [19] = Cmax in rat CSF at 30 mg/kg, sc; format: ADME, organism-based, Cerebrospinal fluid; design: dose 30 mg/kg, route subcutaneous
# [20] = Fraction unbound in rat plasma; format: ADME, cell-free
# [21] = Volume of distribution at steady state in rat at 3 mg/kg, iv; format: ADME, organism-based; design: dose 3 mg/kg, route intravenous; details: in vivo, read-out: Vdss
# Plasma [22] = test: Terminal plasma concentration in Sprague-Dawley rat at 10 mg/kg, po measured during second phase of formalin test; format: ADME, organism-based; design: dose 10 mg/kg, route oral; details: in vivo
# Rattus norvegicus [23] = test: Antinociceptive activity in Sprague-Dawley rat assessed as reduction in formalin-induced nocifensive behavior at 30 mg/kg, po administered 30 mins prior to formalin-challenge measured during second phase of test; format: functional, organism-based; design: dose 30 mg/kg
# [24] = Clearance in rat at 3 mg/kg, iv; format: ADME, organism-based; design: dose 3 mg/kg, route intravenous; details: in vivo
# Chain of Metabotropic glutamate receptor 5 (P31424 whole entry): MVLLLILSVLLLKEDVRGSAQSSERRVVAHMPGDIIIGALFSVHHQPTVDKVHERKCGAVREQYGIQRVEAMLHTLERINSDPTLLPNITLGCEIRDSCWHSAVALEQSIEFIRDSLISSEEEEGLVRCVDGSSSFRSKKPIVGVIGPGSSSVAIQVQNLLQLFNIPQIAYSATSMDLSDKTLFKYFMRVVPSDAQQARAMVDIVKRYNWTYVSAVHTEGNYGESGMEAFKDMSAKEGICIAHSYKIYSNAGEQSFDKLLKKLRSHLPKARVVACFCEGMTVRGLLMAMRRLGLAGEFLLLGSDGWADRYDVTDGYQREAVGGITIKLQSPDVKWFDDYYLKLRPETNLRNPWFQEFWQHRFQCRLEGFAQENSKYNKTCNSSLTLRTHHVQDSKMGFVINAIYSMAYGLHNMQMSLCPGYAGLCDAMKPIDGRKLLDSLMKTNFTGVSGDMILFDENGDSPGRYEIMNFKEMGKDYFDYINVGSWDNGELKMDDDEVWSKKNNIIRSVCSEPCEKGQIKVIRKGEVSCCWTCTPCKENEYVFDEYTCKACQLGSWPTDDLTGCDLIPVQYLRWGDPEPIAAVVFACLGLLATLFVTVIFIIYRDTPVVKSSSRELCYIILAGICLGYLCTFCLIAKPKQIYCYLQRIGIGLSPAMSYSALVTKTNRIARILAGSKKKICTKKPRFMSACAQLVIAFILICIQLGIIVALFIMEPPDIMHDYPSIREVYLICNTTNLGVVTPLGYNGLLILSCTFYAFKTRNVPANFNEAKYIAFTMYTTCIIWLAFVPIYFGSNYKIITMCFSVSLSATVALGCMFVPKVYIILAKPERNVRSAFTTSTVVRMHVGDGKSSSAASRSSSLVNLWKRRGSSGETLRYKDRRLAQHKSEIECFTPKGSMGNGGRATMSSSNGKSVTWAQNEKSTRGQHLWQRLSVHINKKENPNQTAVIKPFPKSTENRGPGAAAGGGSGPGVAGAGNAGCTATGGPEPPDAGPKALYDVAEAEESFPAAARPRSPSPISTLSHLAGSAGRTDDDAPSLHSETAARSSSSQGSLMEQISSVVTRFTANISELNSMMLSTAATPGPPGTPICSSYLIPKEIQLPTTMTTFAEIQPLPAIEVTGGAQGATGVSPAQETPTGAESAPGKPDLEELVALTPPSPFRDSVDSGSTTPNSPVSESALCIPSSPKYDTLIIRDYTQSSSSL
structure (smiles),measurement,setting,value
Clc1cccc(COc2cc3n(n2)CCCC3)n1,IC50,[1]; read-out: IC50,5900 nM
O=C(Nc1ccc(Cl)cn1)c1cc2n(n1)CCCC2,IC50,[1]; read-out: IC50,262 nM
O=C(Nc1ccc(F)cn1)c1cc2n(n1)CCCC2,INH,Cytochrome P450 1A2,> 10 µM
same,solubility kinetic,[2],40 µg/mL
same,microsomal CLint,[3],31 µL/min/mg
same,IC50,[1]; read-out: IC50,60 nM
same,INH,Cytochrome P450 2D6,> 10 µM
same,INH,Cytochrome P450 2C9,> 10 µM
same,solubility kinetic,[4],100 µg/mL
same,inhibition,[5],> 99%
same,INH,Cytochrome P450 3A4,> 10 µM
same,Stability,Plasma [6],Unstable
same,INH,[7],166 nM
Cc1nc(C#Cc2cccnc2)cs1,Activity,Rattus norvegicus [8],Active
Clc1cccc(-c2cc3n(n2)CCCC3)n1,IC50,[1]; read-out: IC50,1520 nM
N#Cc1cccc(COc2cc3n(n2)CCCC3)c1,IC50,[9],451 nM
Cc1cccc(NC(=O)c2cc3n(n2)CCCC3)n1,IC50,[1]; hek293,Not Active
O=C(Nc1cccc(F)n1)c1cc2n(n1)CCCC2,IC50,[1]; read-out: IC50,4740 nM
Clc1cccc(COc2cc3n(n2)CCCC3)c1,IC50,[9],332 nM
N#Cc1ccc(CC(=O)c2nn3c(c2C#N)CCCC3)nc1,IC50,[1]; read-out: IC50,5380 nM
CC(=O)c1ccc(COc2cc3n(n2)CCCC3)nc1,IC50,[1]; hek293,Not Active
N#Cc1ccc(CC(=O)c2nn3c(c2Cl)CCCC3)nc1,INH,Cytochrome P450 1A2,> 10 µM
same,microsomal CLint,[3],79 µL/min/mg
same,IC50,[1]; read-out: IC50,108 nM
same,INH,Cytochrome P450 2D6,> 10 µM
same,INH,Cytochrome P450 2C9,> 10 µM
same,inhibition,[5],> 99%
same,microsomal CLint,[10],649 µL/min/mg
same,INH,Cytochrome P450 3A4,> 10 µM
N#Cc1ccc(CC(=O)c2nn3c(c2C(F)(F)F)CCCC3)nc1,IC50,[1]; read-out: IC50,7180 nM
O=C(Cc1ccccn1)c1cc2n(n1)CCCC2,IC50,[1]; read-out: IC50,390 nM
Clc1ccc(COc2cc3n(n2)CCCC3)nc1,IC50,[1]; read-out: IC50,1550 nM
O=C(Nc1cccc(C(F)(F)F)n1)c1cc2n(n1)CCCC2,IC50,[1]; hek293,Not Active
Nc1ccc(NC(=O)c2cc3n(n2)CCCC3)nc1,IC50,[1]; hek293,Not Active
N#Cc1ccc(CC(=O)c2cc3n(n2)CCCC3)nc1,INH,Cytochrome P450 1A2,> 10 µM
same,solubility kinetic,[2],30 µg/mL
same,microsomal CLint,[3],46 µL/min/mg
same,IC50,[1]; read-out: IC50,53 nM
same,INH,Cytochrome P450 2D6,> 10 µM
same,INH,Cytochrome P450 2C9,> 10 µM
same,solubility kinetic,[4],80 µg/mL
same,inhibition,[5],> 99%
same,microsomal CLint,[10],108 µL/min/mg
same,INH,Cytochrome P450 3A4,> 10 µM
same,INH,[7],139 nM
c1ccc(COc2cc3n(n2)CCCC3)cc1,IC50,[1]; hek293,Not Active
N#Cc1ccc(COc2cc3n(n2)CCCC3)nc1,Cp(T),Plasma [11],5.3 ng/mL
same,Activity,Rattus norvegicus [12],Dose-dependent effect
same,Drug uptake,Plasma [13],14.4%
same,INH,Cytochrome P450 1A2,> 10 µM
same,solubility kinetic,[2],100 µg/mL
same,microsomal CLint,[3],85 µL/min/mg
same,half-life,[14],12 min
same,Activity,Rattus norvegicus [15],inactive
same,IC50,[1]; read-out: IC50,316 nM
same,Cp(T),Plasma [16],2.4 ng/mL
same,Cmax,[17],2900 ng/mL
same,INH,Cytochrome P450 2D6,> 10 µM
same,Cp(T),Plasma [18],501 ng/mL
same,INH,Cytochrome P450 2C9,> 10 µM
same,solubility kinetic,[4],160 µg/mL
same,inhibition,[5],> 99%
same,microsomal CLint,[10],42 µL/min/mg
same,Cmax,[19],416 ng/mL
same,INH,Cytochrome P450 3A4,> 10 µM
same,fraction unbound,[20],0.32
same,Vd,[21],1.1 L/kg
same,Cp(T),Plasma [22],46 ng/mL
same,Activity,Rattus norvegicus [23],Active
same,clearance,[24],72 mL/min/kg
same,INH,[7],299 nM
O=C(Nc1ccccn1)c1cc2n(n1)CCCC2,IC50,[1]; read-out: IC50,364 nM
N#Cc1ccnc(NC(=O)c2cc3n(n2)CCCC3)c1,IC50,[1]; hek293,Not Active
Cc1cccc(-c2cc3n(n2)CCCC3)n1,IC50,[1]; read-out: IC50,1240 nM
Nc1cccnc1NC(=O)c1cc2n(n1)CCCC2,IC50,[1]; read-out: IC50,> 10000 nM
Cc1ccnc(-c2cc3n(n2)CCCC3)c1,IC50,[1]; read-out: IC50,3080 nM
Cc1ccc(-c2cc3n(n2)CCCC3)nc1,IC50,[1]; read-out: IC50,3000 nM
N#Cc1cccnc1NC(=O)c1cc2n(n1)CCCC2,IC50,[1]; hek293,Not Active

# From ChEMBL document CHEMBL2406991, “A novel series of metabotropic glutamate receptor 5 negative allosteric modulators based on a 4,5,6,7-tetrahydropyrazolo[1,5-a]pyridine core” (Bioorg Med Chem Lett, 2013)
